# Tested on: MV4:11 human cancer cell lines
# Assay: Cellular viability / anti-proliferative activity, CellTiter-Glo, 5 day protocol
# Format: cell-based
# Conditions: Homo sapiens, MV4-11, 120 h, MV4:11 cells; 5 day incubation; CellTiter-Glo; mean of minimum two replicates; read-out: GI50 on cellular proliferation of MV4:11 human cancer cell lines
# In short: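 Compounds were tested over 22 two-fold dilutions starting at 30 μM in 0.3% DMSO, with 200 cells per well (7200 cells/mL). Viability was measured by CellTiter-Glo luminescence at day 5.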
row,SMILES,GI50 [µM]
1,"COc1cc(CN2CCc3c(cc(Cn4ccn(C)c4=N)cc3-c3nc(C)cn3C)C2=O)cc(OC)c1 [Example 153, 2-(3,5-Dimethoxybenzyl)-5-(1,4-dimethyl-1H-imidazol-2-yl)-7-((2-imino-3-methyl-2,3-dihydro-1H-imidazol-1-yl)methyl)-3,4-dihydroisoquinolin-1(2H)-one]",> 0.938
2,"COc1cc(CN2CCc3c(cc(Cn4ccn(C)c4=N)cc3-c3cc(C)nc(C)c3)C2=O)cc(OC)c1 [Example 154, 2-(3,5-Dimethoxybenzyl)-5-(2,6-dimethylpyridin-4-yl)-7-((2-imino-3-methyl-2,3-dihydro-1H-imidazol-1-yl)methyl)-3,4-dihydroisoquinolin-1(2H)-one]",0.559
3,"CCc1nccn1Cc1cc2c(c(-c3cc(C)nc(C)c3)c1)CCN(Cc1cc(OC)cc(OC)c1)C2=O [Example 155, 2-(3,5-Dimethoxybenzyl)-5-(2,6-dimethylpyridin-4-yl)-7-((2-ethyl-1H-imidazol-1-yl)methyl)-3,4-dihydroisoquinolin-1(2H)-one]",0.407
4,"CCn1cc(-c2cc(Cn3ccnc3C(C)C)cc3c2CCN([C@@H](C)c2cc(OC)ccn2)C3=O)c(C(F)(F)F)n1 [Example 162, (S)-5-(1-Ethyl-3-(trifluoromethyl)-1H-pyrazol-4-yl)-7-((2-isopropyl-1H-imidazol-1-yl)methyl)-2-(1-(4-methoxypyridin-2-yl)ethyl)-3,4-dihydroisoquinolin-1(2H)-one]",13.4
5,"CCc1nccn1Cc1cc2c(c(-c3cn(C)nc3C(F)(F)F)c1)CCN([C@@H](C)c1cc(C)cc(C)n1)C2=O [Example 164, (S)-2-(1-(4,6-Dimethylpyridin-2-yl)ethyl)-7-((2-ethyl-1H-imidazol-1-yl)methyl)-5-(1-methyl-3-(trifluoromethyl)-1H-pyrazol-4-yl)-3,4-dihydroisoquinolin-1(2H)-one]",0.057
6,"Cc1cc(C)nc([C@@H](C)N2CCc3c(cc(Cn4ccnc4C)cc3-c3cn(C)nc3C(F)(F)F)C2=O)c1 [Example 166, (R)-2-(1-(4,6-Dimethylpyridin-2-yl)ethyl)-7-((2-methyl-1H-imidazol-1-yl)methyl)-5-(1-methyl-3-(trifluoromethyl)-1H-pyrazol-4-yl)-3,4-dihydroisoquinolin-1(2H)-one]",0.089
7,"Cc1nccn1Cc1cc2c(c(-c3cn(C)nc3C(F)(F)F)c1)CCN(CC1CCCOC1)C2=O (centres unmarked) [Example 167, 7-((2-Methyl-1H-imidazol-1-yl)methyl)-5-(1-methyl-3-(trifluoromethyl)-1H-pyrazol-4-yl)-2-((tetrahydro-2H-pyran-3-yl)methyl)-3,4-dihydroisoquinolin-1(2H)-one]",3.02
8,"Cc1nccn1Cc1cc2c(c(-c3cn(C)nc3C(F)(F)F)c1)CCN(CC1CCCCO1)C2=O (centres unmarked) [Example 169, 7-((2-Methyl-1H-imidazol-1-yl)methyl)-5-(1-methyl-3-(trifluoromethyl)-1H-pyrazol-4-yl)-2-((tetrahydro-2H-pyran-2-yl)methyl)-3,4-dihydroisoquinolin-1(2H)-one]",2
9,"Cc1nccn1Cc1cc2c(c(-c3cn(C)nc3C(F)(F)F)c1)CCN(Cc1ccc3c(c1)OCO3)C2=O [Example 170, 2-(Benzo[d][1,3]dioxol-5-ylmethyl)-7-((2-methyl-1H-imidazol-1-yl)methyl)-5-(1-methyl-3-(trifluoromethyl)-1H-pyrazol-4-yl)-3,4-dihydroisoquinolin-1(2H)-one]",0.835
10,"Cc1nccn1Cc1cc2c(c(-c3cn(C)nc3C(F)(F)F)c1)CCN(CC1CCCCN1C)C2=O (centres unmarked) [Example 171, 7-((2-Methyl-1H-imidazol-1-yl)methyl)-5-(1-methyl-3-(trifluoromethyl)-1H-pyrazol-4-yl)-2-((1-methylpiperidin-2-yl)methyl)-3,4-dihydroisoquinolin-1(2H)-one]",6.9
11,"Cc1nccn1Cc1cc2c(c(-c3cn(C)nc3C(F)(F)F)c1)CCN(CC1CCC(=O)N(C)C1)C2=O (centres unmarked) [Example 172, 7-((2-Methyl-1H-imidazol-1-yl)methyl)-5-(1-methyl-3-(trifluoromethyl)-1H-pyrazol-4-yl)-2-((1-methyl-6-oxopiperidin-3-yl)methyl)-3,4-dihydroisoquinolin-1(2H)-one]",0.221
12,"Cc1nccn1Cc1cc2c(c(-c3cn(C)nc3C(F)(F)F)c1)CCN(CC1CCOCC1)C2=O [Example 173, 7-((2-Methyl-1H-imidazol-1-yl)methyl)-5-(1-methyl-3-(trifluoromethyl)-1H-pyrazol-4-yl)-2-((tetrahydro-2H-pyran-4-yl)methyl)-3,4-dihydroisoquinolin-1(2H)-one]",3.91
13,"Cc1nnc(CN2CCc3c(cc(Cn4ccnc4C)cc3-c3cn(C)nc3C(F)(F)F)C2=O)s1 [Example 174, 2-((5-Methyl-1,3,4-thiadiazol-2-yl)methyl)-7-((2-methyl-1H-imidazol-1-yl)methyl)-5-(1-methyl-3-(trifluoromethyl)-1H-pyrazol-4-yl)-3,4-dihydroisoquinolin-1(2H)-one]",0.329
14,"Cc1nccn1Cc1cc2c(c(-c3cn(C)nc3C(F)(F)F)c1)CCN(Cc1ccc3ccccc3n1)C2=O [Example 176, 7-((2-Methyl-1H-imidazol-1-yl)methyl)-5-(1-methyl-3-(trifluoromethyl)-1H-pyrazol-4-yl)-2-(quinolin-2-ylmethyl)-3,4-dihydroisoquinolin-1(2H)-one]",0.293
15,"CCn1cc(-c2cc(Cn3cnc(C)c3C)cc3c2CCN([C@@H](C)c2cc(OC)ccn2)C3=O)c(C(F)(F)F)n1 [Example 178, (S)-7-((4,5-Dimethyl-1H-imidazol-1-yl)methyl)-5-(1-ethyl-3-(trifluoromethyl)-1H-pyrazol-4-yl)-2-(1-(4-methoxypyridin-2-yl)ethyl)-3,4-dihydroisoquinolin-1(2H)-one]",0.152
16,CCn1cc(-c2cc(Cn3ccnc3C#N)cc3c2CCN([C@@H](C)c2cc(OC)ccn2)C3=O)c(C(F)(F)F)n1 [Example 179],9.64

# Compounds with a lower GI50, results first:
row,GI50 [µM],SMILES
1,< 0.05,"CCn1cc(-c2cc(Cn3ccnc3C)cc3c2CCN([C@@H](C)c2cc(OC)ccn2)C3=O)c(C(F)(F)F)n1 [Example 156, (S)-5-(1-Ethyl-3-(trifluoromethyl)-1H-pyrazol-4-yl)-2-(1-(4-methoxypyridin-2-yl)ethyl)-7-((2-methyl-1H-imidazol-1-yl)methyl)-3,4-dihydroisoquinolin-1(2H)-one]"
2,< 0.05,"Cc1cncc(CN2CCc3c(cc(Cn4ccnc4C)cc3-c3cn(C)nc3C(F)(F)F)C2=O)c1 [Example 157, 7-((2-Methyl-1H-imidazol-1-yl)methyl)-5-(1-methyl-3-(trifluoromethyl)-1H-pyrazol-4-yl)-2-((5-methylpyridin-3-yl)methyl)-3,4-dihydroisoquinolin-1(2H)-one]"
3,< 0.05,"CCn1cc(-c2cc(Cn3ccnc3C3CC3)cc3c2CCN([C@@H](C)c2cc(OC)ccn2)C3=O)c(C(F)(F)F)n1 [Example 159, (S)-7-((2-Cyclopropyl-1H-imidazol-1-yl)methyl)-5-(1-ethyl-3-(trifluoromethyl)-1H-pyrazol-4-yl)-2-(1-(4-methoxypyridin-2-yl)ethyl)-3,4-dihydroisoquinolin-1(2H)-one]"
4,< 0.05,"CCn1cc(-c2cc(Cn3ccnc3)cc3c2CCN([C@@H](C)c2cc(OC)ccn2)C3=O)c(C(F)(F)F)n1 [Example 160, (S)-7-((1H-Imidazol-1-yl)methyl)-5-(1-ethyl-3-(trifluoromethyl)-1H-pyrazol-4-yl)-2-(1-(4-methoxypyridin-2-yl)ethyl)-3,4-dihydroisoquinolin-1(2H)-one]"
5,< 0.05,"CCn1cc(-c2cc(Cn3ccnc3NC)cc3c2CCN([C@@H](C)c2cc(OC)ccn2)C3=O)c(C(F)(F)F)n1 [Example 161, (S)-5-(1-Ethyl-3-(trifluoromethyl)-1H-pyrazol-4-yl)-2-(1-(4-methoxypyridin-2-yl)ethyl)-7-((2-(methylamino)-1H-imidazol-1-yl)methyl)-3,4-dihydroisoquinolin-1(2H)-one]"
6,< 0.05,"Cc1cc([C@H](C)N2CCc3c(cc(Cn4ccnc4C)cc3-c3cn(C)nc3C(F)(F)F)C2=O)ncc1F [Example 163, (S)-2-(1-(5-fluoro-4-methylpyridin-2-yl)ethyl)-7-((2-methyl-1H-imidazol-1-yl)methyl)-5-(1-methyl-3-(trifluoromethyl)-1H-pyrazol-4-yl)-3,4-dihydroisoquinolin-1(2H)-one]"
7,< 0.05,"Cc1cc(C)nc([C@H](C)N2CCc3c(cc(Cn4ccnc4C)cc3-c3cn(C)nc3C(F)(F)F)C2=O)c1 [Example 165, (S)-2-(1-(4,6-Dimethylpyridin-2-yl)ethyl)-7-((2-methyl-1H-imidazol-1-yl)methyl)-5-(1-methyl-3-(trifluoromethyl)-1H-pyrazol-4-yl)-3,4-dihydroisoquinolin-1(2H)-one]"
8,< 0.05,"COc1ccnc([C@H](C)N2CCc3c(cc(Cn4ccnc4C)cc3-c3ccc(F)cc3C)C2=O)c1 [Example 168, (S)-5-(4-Fluoro-2-methylphenyl)-2-(1-(4-methoxypyridin-2-yl)ethyl)-7-((2-methyl-1H-imidazol-1-yl)methyl)-3,4-dihydroisoquinolin-1(2H)-one]"
9,< 0.05,"CCc1ccnc([C@H](C)N2CCc3c(cc(Cn4ccnc4C)cc3-c3cn(C)nc3C(F)(F)F)C2=O)c1 [Example 175, (S)-2-(1-(4-Ethylpyridin-2-yl)ethyl)-7-((2-methyl-1H-imidazol-1-yl)methyl)-5-(1-methyl-3-(trifluoromethyl)-1H-pyrazol-4-yl)-3,4-dihydroisoquinolin-1(2H)-one]"
10,< 0.05,"CCn1cc(-c2cc(Cn3ccnc3C)cc3c2CCN([C@H](c2cc(C)ccn2)C2CC2)C3=O)c(C(F)(F)F)n1 [Example 177, (S)-2-(Cyclopropyl(4-methylpyridin-2-yl)methyl)-5-(1-ethyl-3-(trifluoromethyl)-1H-pyrazol-4-yl)-7-((2-methyl-1H-imidazol-1-yl)methyl)-3,4-dihydroisoquinolin-1(2H)-one]"

# Reference: patent US11999716B2, “WDR5 inhibitors and modulators” (priority 2018, dated 2024)
